Laboratory results from patent publication US20120295907A1, “INSECTICIDAL COMPOUNDS” (SYNGENTA CROP PROTECTION, LLC, priority 2009, published 2012).

Key:
Format in all cases: in vivo
Spodoptera littoralis = Spodoptera littoralis (Egyptian Cotton Leafworm) cotton leaf disc spray test; details: foliar, 72 h, 200 ppm spray on cotton leaf discs, L1 larvae, mortality, feeding behavior, growth regulation 3 DAT
Diabrotica balteata = Diabrotica balteata (Corn Root Worm) artificial diet MTP test; details: 120 h, 200 ppm (concentration in well 18 ppm), L2 larvae, 5 days, larval mortality, growth regulation
Thrips tabaci = Thrips tabaci (Onion Thrips) sunflower leaf disc spray test; details: foliar, 168 h, 200 ppm spray on sunflower leaf discs, population of mixed ages, 7 days, mortality
Tetranychus urticae = Tetranychus urticae (Two-Spotted Spider Mite) bean leaf disc spray test; details: foliar, 192 h, 200 ppm spray on bean leaf discs, mite populations of mixed ages, 8 days, egg, larval and adult mortality, read-out: control of Tetranychus urticae
Myzus persicae = Myzus persicae (Green Peach Aphid) sunflower leaf disc spray test; details: foliar, 144 h, 200 ppm spray on sunflower leaf discs, aphid population of mixed ages, 6 DAT, mortality
Heliothis virescens = Heliothis virescens (Tobacco Budworm) egg test on artificial diet; details: 96 h, 200 ppm (concentration in well 18 ppm), eggs 0-24 h old on artificial diet, 4 days, egg mortality, larval mortality, growth regulation
Plutella xylostella = Plutella xylostella (Diamond Back Moth) artificial diet MTP test; details: 144 h, 200 ppm (concentration in well 18 ppm), L2 larvae, 6 days, larval mortality, growth regulation

Measured: pest or weed control at 200 ppm

CCc1cc(C(F)(C(F)(F)F)C(F)(F)C(F)(F)F)cc(C)c1NC(=O)c1cccc(NC(=O)c2ccc(F)cc2Cl)c1OC (stereo not shown) [A3, N-[2-ethyl-4-(1,2,2,3,3,3-hexafluoro-1-trifluoromethylpropyl)-6-methylphenyl]-3-(4-fluoro-2-chlorobenzoylamino)-2-methoxybenzamide]
not listed: Heliothis virescens | Plutella xylostella
≥ 80%: all other assays above

CCc1cc(C(F)(C(F)(F)F)C(F)(F)C(F)(F)F)cc(C)c1NC(=O)c1cccc(NC(=O)c2ccc(C#N)cc2)c1OC (stereo not shown) [A4, N-[2-ethyl-4-(1,2,2,3,3,3-hexafluoro-1-trifluoromethylpropyl)-6-methyl-phenyl]-3-(4-cyanobenzoylamino)-2-methoxybenzamide]
≥ 80%: all assays above

CCc1cc(C(F)(C(F)(F)F)C(F)(F)C(F)(F)F)cc(C)c1NC(=O)c1cccc(NC(=O)c2ccnc(Cl)c2)c1OC (stereo not shown) [A10]
≥ 80%: all assays above

CCc1cc(C(F)(C(F)(F)F)C(F)(F)C(F)(F)F)cc(C)c1NC(=O)c1cccc(NC(=O)c2ccc(Cl)nc2)c1OC (stereo not shown) [A17]
≥ 80%: all assays above

CCc1cc(C(F)(C(F)(F)F)C(F)(F)C(F)(F)F)cc(C)c1NC(=O)c1cccc(NC(=O)c2ccc([N+](=O)[O-])cc2)c1OC (stereo not shown) [A18]
≥ 80%: all assays above

CCc1cc(C(F)(C(F)(F)F)C(F)(F)C(F)(F)F)cc(C)c1NC(=O)c1cccc(NC(=O)c2ccc([N+](=O)[O-])cc2C)c1OC (stereo not shown) [A22]
not listed: Heliothis virescens
≥ 80%: all other assays above

COc1c(NC(=O)c2ccccc2C)cccc1C(=O)Nc1c(Cl)cc(C(F)(C(F)(F)F)C(F)(F)C(F)(F)F)cc1Br (stereo not shown) [B4]
≥ 80%: all assays above

COc1c(NC(=O)c2ccc(SC)cc2)cccc1C(=O)Nc1c(Cl)cc(C(F)(C(F)(F)F)C(F)(F)C(F)(F)F)cc1Br (stereo not shown) [B26]
≥ 80%: all assays above

COc1ccc(C(=O)Nc2cccc(C(=O)Nc3c(Cl)cc(C(F)(C(F)(F)F)C(F)(F)C(F)(F)F)cc3Br)c2OC)cc1 (stereo not shown) [B28]
not listed: Heliothis virescens
≥ 80%: all other assays above

COc1c(NC(=O)c2ccccc2Br)cccc1C(=O)Nc1c(Cl)cc(C(F)(C(F)(F)F)C(F)(F)C(F)(F)F)cc1Br (stereo not shown) [B36]
≥ 80%: all assays above

COc1c(NC(=O)c2cc(C)nn2C)cccc1C(=O)Nc1c(Cl)cc(C(F)(C(F)(F)F)C(F)(F)C(F)(F)F)cc1Br (stereo not shown) [B42]
≥ 80%: all assays above

COc1c(NC(=O)c2ccncc2)cccc1C(=O)Nc1c(Cl)cc(C(F)(C(F)(F)F)C(F)(F)C(F)(F)F)cc1Br (stereo not shown) [B54]
not listed: Heliothis virescens
≥ 80%: all other assays above

COc1c(NC(=O)c2ccncc2Cl)cccc1C(=O)Nc1c(Cl)cc(C(F)(C(F)(F)F)C(F)(F)C(F)(F)F)cc1Br (stereo not shown) [B66]
≥ 80%: all assays above

COc1c(NC(=O)c2ccccc2[N+](=O)[O-])cccc1C(=O)Nc1c(Cl)cc(C(F)(C(F)(F)F)C(F)(F)C(F)(F)F)cc1Br (stereo not shown) [B80]
≥ 80%: all assays above

COc1c(NC(=O)c2ccncc2C)cccc1C(=O)Nc1c(Cl)cc(C(F)(C(F)(F)F)C(F)(F)C(F)(F)F)cc1Br (stereo not shown) [B82]
≥ 80%: all assays above

COc1c(NC(=O)c2csnc2C)cccc1C(=O)Nc1c(Cl)cc(C(F)(C(F)(F)F)C(F)(F)C(F)(F)F)cc1Br (stereo not shown) [B98]
not listed: Thrips tabaci
≥ 80%: all other assays above

COc1c(NC(=O)c2c(F)cc(F)cc2F)cccc1C(=O)Nc1c(Cl)cc(C(F)(C(F)(F)F)C(F)(F)F)cc1Br [G3]
not listed: Thrips tabaci
≥ 80%: all other assays above

COc1c(NC(=O)c2c(F)cc(C#N)cc2F)cccc1C(=O)Nc1c(Cl)cc(C(F)(C(F)(F)F)C(F)(F)F)cc1Br [G4]
not listed: Thrips tabaci
≥ 80%: all other assays above

COc1c(NC(=O)c2ccc(F)cc2Cl)cccc1C(=O)Nc1c(Cl)cc(C(F)(C(F)(F)F)C(F)(F)F)cc1Br [G5]
not listed: Thrips tabaci
≥ 80%: all other assays above

CCc1cc(C(F)(C(F)(F)F)C(F)(F)F)cc(C)c1NC(=O)c1cccc(NC(=O)c2ccc(F)cc2Cl)c1OC [J27]
not listed: Spodoptera littoralis
≥ 80%: all other assays above
